These results are taken from US20070099857A1, “Methods and means for inhibiting fever” (priority 2003, published 2007).

Molecules are shown by their SMILES.

Assay [1] in a line: PGE2-induced febrile response after intracerebroventricular injection, telemetric body temperature. Format: in vivo, mice. The following applies: 4 nmol PGE2 intracerebroventricular. The procedure: We confirmed the absence of overt physiological signaling defects by ensuring that PGE2-evoked (the missing product in mPGESl1^−/− mice that is generated following LPS challenge) pyresis was indeed intact in mPGES1^−/− mice. We performed intracerebroventricular injections of PGE2 (4 nmol in 2 μl artificial cerebrospinal fluid) and then monitored using telemetry the body temperature in awake and unrestrained animals. […] Thus, a pronounced temperature increase was seen almost immediately after the PGE2 injection. It reached its peak after 30 minutes and lasted for about 1.5 hour. To determine that the elicited febrile response was due to specific activation of PGE2 receptors and not represented an unspecific response, we injected the same amount of PGE2 into EP3 receptor^−/− mice as we had injected into mPGES-1^−/− mice.
Telemetric temperature recordings: One week prior to each experiment, a temperature transmitter (Data Science International) was implanted into the peritoneal cavity of each mouse. Recordings were made via a receiver located beneath the cage and the data were fed into a computer. Recordings started at least one hour prior to surgery or injection, and were obtained every second minute throughout the entire session.
Intracerebroventricular injections of PGE2: Mice were mounted in a stereotaxic frame under anesthesia with 1% isoflurane in a 30/70% mixture of O2/N2, and kept at 37° C. through a feedback controlled heating pad. A drill hole was made in the skull through which a 29 gauge (o.d.) needle connected by a silicon tube to a Hamilton syringe was inserted into the lateral ventricle (0.5 mm posterior to Bregma, 1 mm lateral to midline, and 2.5 mm vertical to the skull surface), and 4 nmol PGE2 in 2 μl artificial cerebrospinal fluid was injected during 1 min. Control injection consisted of artificial cerebrospinal fluid. Two minutes after the end of the injection, the needle was removed, the skin sutured, and the gas anesthesia turned off. All animals were awake within 5 min after injection and were immediately returned to their home cage for resumed body temperature recordings.

A further assay concerns the target T1, mPGES-1 (Homo sapiens, UniProt O14684).
T1 sequence (O14684 1-152): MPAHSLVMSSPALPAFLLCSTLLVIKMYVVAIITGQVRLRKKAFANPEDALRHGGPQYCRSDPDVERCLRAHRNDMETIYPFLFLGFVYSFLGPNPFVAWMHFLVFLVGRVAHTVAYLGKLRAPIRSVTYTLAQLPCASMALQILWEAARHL
The following applies: literature values (Thoren et al. 2000; Mancini et al. 2001; Quraishi et al. 2002); read-out: IC50 for inhibition of mPGES-1; cited from earlier work.

The term IC50 denotes the concentration at which inhibition is half-maximal.

Consider `CCCCC[C@H](O)/C=C/[C@H]1[C@H](O)CC(=O)[C@@H]1C/C=C\CCCC(=O)O` (relative stereo) [PGE2, 11α, 15(S)-dihydroxy-9-ketoprosta-5-cis-13-trans-dienoic acid], for which, in assay [1], the “duration of temperature increase” value was “about 1.5 hour” and the “time to peak of temperature increase after injection” value stood at 30 min. Moreover, the febrile response entry in assay [1] (EP3 receptor−/− mice) was “did not display any febrile response”. The temperature elevation entry in assay [1] (mPGES+/+ mice) was “rapid and pronounced temperature elevation”. Also, in assay [1] (mPGES-1−/− mice), the febrile response entry was “rapid and strong febrile response”.
`CCCCCC=CCC=CC=CC=CC(SCC(NC(=O)CCC(N)C(=O)O)C(=O)NCC(=O)O)C(O)CCCC(=O)O` [leukotriene C4, 5(S)-hydroxy-6(R)-S-glutathionyl-7,9-trans-11,14-cis-eicosa-tetraenoic acid]: the IC50 at mPGES-1 was 5 µM.
